Laboratory results taken from BigSolDB 2.1.

CC(C)[C@H](NC(=O)OCC1c2ccccc2-c2ccccc21)C(=O)O
solubility (mole fraction)
Settings	283.15 K	288.15 K	293.15 K	298.15 K	303.15 K	308.15 K	313.15 K	318.15 K	323.15 K
in isopropanol	0.0105	0.0133	0.0161	0.0204	0.0271	0.0352	0.0448	0.0533	0.071
in methanol	0.0238	0.0259	0.0321	0.0396	0.0468	0.0571	0.0694	0.0846	0.0985
in n-butanol	0.0155	0.019	0.0216	0.0244	0.0287	0.0351	0.0434	0.0536	0.0728
in n-butyl acetate	0.0143	0.0162	0.0184	0.0209	0.0234	0.0273	0.0314	0.0362	0.0417
in n-pentanol	0.016	0.0172	0.0199	0.0233	0.0281	0.0344	0.0417	0.0495	0.0582
in n-propanol	0.0141	0.0169	0.0199	0.0227	0.0319	0.0398	0.0481	0.057	0.0742
in sec-butanol	0.016	0.0174	0.0222	0.0275	0.0349	0.0435	0.0549	0.0653	0.0801
